Experiment [1] concerns the target T1, 5-HT3A receptor P155C mutant (Homo sapiens, UniProt P46098, P150C).
T1 construct: expressed in transfected cells; host or cells: HEK293, transient, pcDNA3.1
T1 sequence (P46098 24-478 P150C): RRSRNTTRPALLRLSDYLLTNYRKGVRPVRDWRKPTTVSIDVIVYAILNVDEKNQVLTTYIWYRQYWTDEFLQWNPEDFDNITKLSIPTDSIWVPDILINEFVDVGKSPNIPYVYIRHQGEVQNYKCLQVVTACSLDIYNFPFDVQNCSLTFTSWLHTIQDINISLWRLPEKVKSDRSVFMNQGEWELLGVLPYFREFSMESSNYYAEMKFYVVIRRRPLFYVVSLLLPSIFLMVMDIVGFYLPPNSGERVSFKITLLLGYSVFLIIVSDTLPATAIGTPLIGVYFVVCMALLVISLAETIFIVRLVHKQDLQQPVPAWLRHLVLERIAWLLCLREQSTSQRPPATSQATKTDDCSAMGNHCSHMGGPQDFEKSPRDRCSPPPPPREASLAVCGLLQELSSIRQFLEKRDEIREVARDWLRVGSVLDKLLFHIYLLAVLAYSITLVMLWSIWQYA
Description: Saturation radioligand binding, 5-HT3A P155C mutant. The note with it: P155C versus wild type. Here is the method:
(§1) Mutagenesis was performed using the QuikChange method (Agilent Technologies Inc., California, USA). Cysteine residues were substituted for amino acids throughout each of the binding loops A - E (Fig. 1). To facilitate comparisons with previous work, we have used the numbering of the equivalent residues in the mouse 5-HT3A subunit (Q6J1J7).
(§2) Human 5-HT3A subunit cDNA (Accession: P46098, kindly provided by J. Peters, Dundee University, UK) was cloned into pcDNA3.1 for expression in HEK293 cells. […] Cells were transiently transfected with either of these cDNA constructs using polyethyleneimine (PEI: 25 kDa, linear, powder, Polysciences Inc., Eppelheim, Germany). 30 μl of PEI (1 mg ml^−1), 5 μg cDNA and 1 ml DMEM were incubated for 10 min at room temperature, added drop wise to a 90 mm plate of 70–80% conﬂuent HEK293 cells, and incubated for 2–3 days before use.
(§3) Transfected HEK 293 cells were scraped into 0.6 ml of ice-cold 10 mM HEPES buffer (pH 7.4) and frozen. […] Radioactivity was measured by scintillation in Ultima Gold XR (Perkin Elmer, Waltham, MA) using a Tri-Carb 2100 TR (PerkinElmer) scintillation counter. Final counts were monitored to ensure that binding never exceeded 10% of the added concentrations of radioligands.
(§4) All data were analysed using GraphPad Prism v5. […]

The target of the next experiment is α7 nACh receptor (UniProt P22770+P23979, M226I/T225I). Description: Competition binding with [3H]epibatidine at α7 nACh receptors. Further details: a chimaera of the chick α7 nACh extracellular domain fused to the 5-HT3 transmembrane/intracellular domains; expressed in transfected cells; host or cells: HEK293 cells, transient transfection (pcDNA3.1, PEI); species or system chick. How it is done:
as §2, with “J.” for “J. Peters, Dundee University, UK) was cloned into pcDNA3.1 for expression in HEK293 cells.”, “use. […] Non-specific binding was determined with 30 μM (-)/-nicotine. Equilibrium reactions were incubated on ice for at least 1 h and bound radioligand measured using the same method as described above.” for “use.”

The target in experiment [2] is T2, 5-HT3A receptor I71C mutant (Homo sapiens, UniProt P46098, I66C).
T2 construct: expressed in transfected cells; host or cells: HEK293, transient, pcDNA3.1
T2 sequence (P46098 24-478 I66C): T1 sequence (P46098 24-478 P150C) with I43C, C127P
Description: Saturation radioligand binding, 5-HT3A I71C mutant. The note with it: I71C versus wild type. Here is the method: as §1, §2, §3, §4

Where a chain is given by its changes, count along the chain named. Bounds are passed on as bounds.

Chain of α7 nACh receptor (P22770+P23979 fused P22770:T225I/P22770:M226I): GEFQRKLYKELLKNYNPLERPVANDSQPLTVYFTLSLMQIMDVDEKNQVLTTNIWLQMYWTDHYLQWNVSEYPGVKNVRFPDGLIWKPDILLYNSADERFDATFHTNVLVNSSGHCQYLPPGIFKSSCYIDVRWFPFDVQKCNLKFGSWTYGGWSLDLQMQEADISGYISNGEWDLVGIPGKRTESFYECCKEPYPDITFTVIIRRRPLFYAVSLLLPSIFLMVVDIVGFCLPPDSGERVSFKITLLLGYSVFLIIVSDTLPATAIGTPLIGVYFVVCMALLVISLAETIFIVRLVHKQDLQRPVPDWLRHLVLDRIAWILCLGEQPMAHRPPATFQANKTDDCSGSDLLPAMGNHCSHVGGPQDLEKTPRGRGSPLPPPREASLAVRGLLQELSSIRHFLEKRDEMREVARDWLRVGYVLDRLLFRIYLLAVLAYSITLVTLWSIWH

Usually Ki stands for the equilibrium dissociation constant of an inhibitor or competing ligand from its target. As to `CN1[C@@H]2CC[C@H]1C[C@@H](OC(=O)c1c[nH]c3ccccc13)C2` [tropisetron, Tropisetron], in experiment [1], the decrease in affinity was determined as 5 fold. The “difference in affinity at 5-HT3 versus α7 nACh receptors” value at α7 nACh receptor (5-HT3 versus α7 nACh) is over 1000 fold. This molecule also came in with a Ki at α7 nACh receptor (competition with [3H]epibatidine) of 1.58 ± 0.84 µM. The molecule further gave a change in affinity in experiment [2] of 1.9 fold.

The values are drawn from publication PMC5464333, “The binding orientations of structurally-related ligands can differ; A cautionary note” (Neuropharmacology, 2017).
